PubChem BioAssay AID330 (DTP/NCI, 2004)
“And” between values parts separate entries of the source, which are not always exact repeats. Identical values can stand only once. Inconclusive results and toxic doses are left out. The calls were made as follows: active = survival T/C of 150% or more; inactive = T/C below 125% in these data.

System: P388 leukemia ip, CD2F1 mice, survival T/C
Test: NCI In Vivo Anticancer Drug Screen. Data for tumor model P388 Leukemia (intraperitoneal) in CD2F1 (CDF1) mice
Conditions: endpoint: median survival time, higher = longer survival
How it was run: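 Mice carrying the transplanted tumor received test compound or vehicle. Survival was recorded in each group, and the value is the treated-group measurement divided by that of the vehicle-treated control group.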

[1] = dose: 50.0 mg/kg/injection, schedule: Q01DX009 (ip), vehicle: saline with Tween-80
[2] = dose: 100.0 mg/kg/injection, schedule: Q01DX009 (ip), vehicle: saline with Tween-80
[3] = dose: 200.0 mg/kg/injection, schedule: Q01DX009 (ip), vehicle: saline with Tween-80
[4] = dose: 12.5 mg/kg/injection, schedule: Q01DX009 (ip), vehicle: water
[5] = dose: 25.0 mg/kg/injection, schedule: Q01DX009 (ip), vehicle: water
[6] = dose: 50.0 mg/kg/injection, schedule: Q01DX009 (ip), vehicle: Klucel (hydroxypropylcellulose) (HPC)
[7] = dose: 100.0 mg/kg/injection, schedule: Q01DX009 (ip), vehicle: Klucel (hydroxypropylcellulose) (HPC)
[8] = dose: 12.5 mg/kg/injection, schedule: Q01DX009 (ip), vehicle: saline with Tween-80
[9] = dose: 25.0 mg/kg/injection, schedule: Q01DX009 (ip), vehicle: saline with Tween-80
[10] = dose: 60.0 mg/kg/injection, schedule: Q01DX005 (ip), vehicle: saline with Tween-80
[11] = dose: 120.0 mg/kg/injection, schedule: Q01DX005 (ip), vehicle: saline with Tween-80

Measured: T/C

Cc1ccc(S(=O)(=O)NNC(=O)CCC(=O)NS(C)(=O)=O)cc1
inactive: dose: 100.0 mg/kg/injection, schedule: Q01DX001 (ip), vehicle: saline with Tween-80 100 % of control | dose: 200.0 mg/kg/injection, schedule: Q01DX001 (ip), vehicle: saline with Tween-80 97 % of control | dose: 400.0 mg/kg/injection, schedule: Q01DX001 (ip), vehicle: saline with Tween-80 93 % of control

O=CN(Nc1ccccc1)C(=O)Nc1ccc(Cl)c(Cl)c1
inactive: dose: 100.0 mg/kg/injection, schedule: Q04DX002 (ip), vehicle: Klucel (hydroxypropylcellulose) (HPC) 96 % of control | dose: 200.0 mg/kg/injection, schedule: Q04DX002 (ip), vehicle: Klucel (hydroxypropylcellulose) (HPC) 97 % of control | dose: 400.0 mg/kg/injection, schedule: Q04DX002 (ip), vehicle: Klucel (hydroxypropylcellulose) (HPC) 104 % of control

CCCCCCCC/C=C\CCCCCCCCCCCC(=O)OCCN(CCOC(=O)CCCCCCCCCCC/C=C\CCCCCCCC)C(=O)c1ccccc1
inactive: [1] 106 % of control | [2] 116 % of control | [3] 116 % of control

O=NNc1cncc(Cl)n1
inactive: dose: 3.12 mg/kg/injection, schedule: Q01DX009 (ip), vehicle: water 100 % of control | dose: 6.25 mg/kg/injection, schedule: Q01DX009 (ip), vehicle: water 97 % of control | [4] 105 % of control | [5] 99 % of control | dose: 50.0 mg/kg/injection, schedule: Q01DX009 (ip), vehicle: water 92 % of control and 97 % of control

COC(=O)C1CC2CC(O)CN(CCc3c1[nH]c1ccccc31)C2 (stereo not drawn)
inactive: dose: 3.63 mg/kg/injection, schedule: Q01DX005 (ip), vehicle: Klucel (hydroxypropylcellulose) (HPC) 104 % of control | dose: 7.25 mg/kg/injection, schedule: Q01DX005 (ip), vehicle: Klucel (hydroxypropylcellulose) (HPC) 100 % of control | dose: 14.5 mg/kg/injection, schedule: Q01DX005 (ip), vehicle: Klucel (hydroxypropylcellulose) (HPC) 104 % of control | dose: 29.0 mg/kg/injection, schedule: Q01DX005 (ip), vehicle: Klucel (hydroxypropylcellulose) (HPC) 89 % of control

CC#CC#C/C=C1/C=CC2(CC=CO2)O1 (stereo not drawn)
inactive: dose: 12.5 mg/kg/injection, schedule: Q01DX009 (ip), vehicle: Klucel (hydroxypropylcellulose) (HPC) 107 % of control | dose: 25.0 mg/kg/injection, schedule: Q01DX009 (ip), vehicle: Klucel (hydroxypropylcellulose) (HPC) 106 % of control | [6] 111 % of control | [7] 114 % of control

OC1(c2ccccc2)C(c2ccccc2)=C(c2ccccc2)C(c2ccc(CCCCCCCCc3ccc(C4=C(c5ccccc5)C(O)(c5ccccc5)C(c5ccccc5)=C4c4ccccc4)cc3)cc2)=C1c1ccccc1 (stereo not drawn)
inactive: dose: 100.0 mg/kg/injection, schedule: Q01DX001 (ip), vehicle: Klucel (hydroxypropylcellulose) (HPC) 86 % of control | dose: 200.0 mg/kg/injection, schedule: Q01DX001 (ip), vehicle: Klucel (hydroxypropylcellulose) (HPC) 89 % of control

CCCCCCC1(/C=C\c2ccccc2Cl)OCCO1
inactive: [6] 103 % of control | [7] 94 % of control | dose: 200.0 mg/kg/injection, schedule: Q01DX009 (ip), vehicle: Klucel (hydroxypropylcellulose) (HPC) 108 % of control

CC(C)N1CCOC(c2cccc(C(F)(F)F)c2)C1 (stereo not drawn)
inactive: dose: 50.0 mg/kg/injection, schedule: Q01DX009 (ip), vehicle: saline 101 % of control | dose: 100.0 mg/kg/injection, schedule: Q01DX009 (ip), vehicle: saline 99 % of control

CCN1c2ccccc2CC(C#N)(CCN(C)C)c2ccccc21 (stereo not drawn)
inactive: [8] 100 % of control | [9] 99 % of control | [1] 104 % of control

O=C(O)CCC(=O)Nc1ccccc1C(=O)O
inactive: [2] 110 % of control | [3] 100 % of control | dose: 400.0 mg/kg/injection, schedule: Q01DX009 (ip), vehicle: saline with Tween-80 110 % of control

CC12CCC/C(=N\NC(N)=S)C1C(=O)NC(=O)C2 (stereo not drawn)
inactive: dose: 50.0 mg/kg/injection, schedule: Q01DX005 (ip), vehicle: saline with Tween-80 99 % of control | dose: 100.0 mg/kg/injection, schedule: Q01DX005 (ip), vehicle: saline with Tween-80 96 % of control | dose: 200.0 mg/kg/injection, schedule: Q01DX005 (ip), vehicle: saline with Tween-80 97 % of control

Cc1ccc(-n2c(C)nc3c(c(C)c(C)n3-c3ccccc3)c2=N)cc1
inactive: dose: 6.25 mg/kg/injection, schedule: Q01DX005 (ip), vehicle: Klucel (hydroxypropylcellulose) (HPC) 90 % of control | dose: 12.5 mg/kg/injection, schedule: Q01DX005 (ip), vehicle: Klucel (hydroxypropylcellulose) (HPC) 100 % of control | dose: 25.0 mg/kg/injection, schedule: Q01DX005 (ip), vehicle: Klucel (hydroxypropylcellulose) (HPC) 98 % of control

COc1cc([C@H]2c3cc4c(cc3C[C@H]3COC(=O)[C@@H]32)OCO4)cc(OC)c1OC
inactive: dose: 12.5 mg/kg/injection, schedule: Q04DX002 (ip), vehicle: saline with Tween-80 92 % of control | dose: 25.0 mg/kg/injection, schedule: Q04DX002 (ip), vehicle: saline with Tween-80 86 % of control | dose: 50.0 mg/kg/injection, schedule: Q04DX002 (ip), vehicle: saline with Tween-80 89 % of control

O=C1CCC(c2n[nH]c(=S)o2)N1 (stereo not drawn)
inactive: [10] 104 % of control | [11] 105 % of control | dose: 240.0 mg/kg/injection, schedule: Q01DX005 (ip), vehicle: saline with Tween-80 108 % of control

CC(C)(O)[C@@H]1Cc2cc3ccc(=O)oc3cc2O1
inactive: dose: 1.0 mg/kg/injection, schedule: Q01DX005 (ip), vehicle: Klucel (hydroxypropylcellulose) (HPC) 89 % of control | dose: 2.0 mg/kg/injection, schedule: Q01DX005 (ip), vehicle: Klucel (hydroxypropylcellulose) (HPC) 102 % of control | dose: 4.0 mg/kg/injection, schedule: Q01DX005 (ip), vehicle: Klucel (hydroxypropylcellulose) (HPC) 98 % of control | dose: 8.0 mg/kg/injection, schedule: Q01DX005 (ip), vehicle: Klucel (hydroxypropylcellulose) (HPC) 96 % of control | dose: 16.0 mg/kg/injection, schedule: Q01DX005 (ip), vehicle: Klucel (hydroxypropylcellulose) (HPC) 96 % of control

CC(C)(CO)NCC(O)CS(=O)(=O)O (stereo not drawn)
inactive: dose: 60.0 mg/kg/injection, schedule: Q01DX005 (ip), vehicle: saline 100 % of control | dose: 120.0 mg/kg/injection, schedule: Q01DX005 (ip), vehicle: saline 100 % of control | dose: 240.0 mg/kg/injection, schedule: Q01DX005 (ip), vehicle: saline 101 % of control

CC12CCCCC1=CC(=O)CC2 (stereo not drawn)
inactive: dose: 12.5 mg/kg/injection, schedule: Q01DX009 (ip), vehicle: other 97 % of control | dose: 25.0 mg/kg/injection, schedule: Q01DX009 (ip), vehicle: other 100 % of control | dose: 25.0 mg/kg/injection, schedule: Q01DX009 (ip), vehicle: saline + Tween-80 + alcohol 100 % of control | dose: 50.0 mg/kg/injection, schedule: Q01DX009 (ip), vehicle: other 107 % of control | dose: 50.0 mg/kg/injection, schedule: Q01DX009 (ip), vehicle: saline + Tween-80 + alcohol 100 % of control | dose: 100.0 mg/kg/injection, schedule: Q01DX009 (ip), vehicle: saline + Tween-80 + alcohol 104 % of control and 114 % of control | dose: 200.0 mg/kg/injection, schedule: Q01DX009 (ip), vehicle: saline + Tween-80 + alcohol 106 % of control

CNc1cccc(NC)c1
inactive: [4] 105 % of control | [5] 112 % of control

N#CC(=Nc1cccc(F)c1)C1=C(O)c2ccccc2C1=O
inactive: [10] 100 % of control | [11] 97 % of control

[Se]c1nc(N2CCOCC2)ncc1-c1ccccc1
inactive: dose: 6.25 mg/kg/injection, schedule: Q01DX009 (ip), vehicle: saline with Tween-80 100 % of control | [8] 95 % of control | [9] 95 % of control | [3] 92 % of control

OC1(c2ccccc2)c2ccccc2-c2ccccc21
inactive: dose: 100.0 mg/kg/injection, schedule: Q04DX003 (ip), vehicle: saline with Tween-80 109 % of control | dose: 200.0 mg/kg/injection, schedule: Q04DX003 (ip), vehicle: saline with Tween-80 109 % of control | dose: 400.0 mg/kg/injection, schedule: Q04DX003 (ip), vehicle: saline with Tween-80 104 % of control
